Here are results for three molecules from patent US20230364272A1, “THERANOSTIC COMPOUNDS” (NRF ITHEMBA LABS, priority 2020, published 2023).

Holding throughout (type): cell-based
In experiment [1] the test system is cervical (HeLa) cancer cell line. Nature of the experiment: ADAM10 biological activity, EC50 in HeLa cells.
The test system of experiment [2] is esophageal (WHCO5) cancer cell line. Nature of the experiment: ADAM10 biological activity, EC50 in WHCO5 cells.
Experiment [3] shares this test system. The experiment is described as follows: Radioactivity uptake of ^123I radiolabeled ADAM10 inhibitor in WHCO5 cells. Particulars: 3 mCi (title); for Average counts per min: 1 h incubation; for A(0) per well × Eff corr: decay corrected.
Experiment [4] relates to cervical (HeLa) cancer cell line. The experiment is described as follows: Radioactivity uptake of ^123I radiolabeled ADAM10 inhibitor in HeLa cells. Particulars: 3 mCi (title); for Average counts per min: 1 h incubation; for A(0) per well × Eff corr: decay corrected.
The test system of experiment [5] is esophageal (WHCO5) cancer cell line. Nature of the experiment: Radioactivity uptake of ^123I radiolabeled ADAM10 inhibitor in WHCO5 cells. The settings on record: for uptake (in words): WHCO5, Table 1 / FIG. 2 experiment. The protocol:
(§1) In order to test the biological activity of the radiolabeled compound in vitro, two cell lines were chosen as esophageal (WHCO5) and cervical (HeLa) cancer cell lines (using [^123I]Nal as the control) and the radioactivity uptake was measured using a bore-hole or scintillation counter. […] The well plates were incubated for one hour in a humidified CO2 incubator at 37° C. The measurements were performed with a ^123I Multi Channel Analyzer, and during the incubation time, a calibration and counting efficiency determination was carried out on the channel.^33
(§2) After the one-hour incubation period, the growth medium was aspirated, leaving the adherent cell monolayers intact and the cell cultures rinsed twice with cold PBS to remove any residual extracellular radioactivity. The cell monolayers were lysed with 1 mL 1M NaOH, and 1 mL of each lysed suspension was transferred to a clean test tube. The data is presented as an average of triplicates and was corrected for ^123I decay using Eff Corr as the correcting factor, which considers the half-life and decay of the radionuclide over a specific time interval.
(§3) […] Data represents an average and standard deviation of 12 replicates using 0.3 μCi of ^123I-SN-311 and 200000 cells.

Experiment [6] relates to cervical (HeLa) cancer cell line. The experiment is described as follows: Radioactivity uptake of ^123I radiolabeled ADAM10 inhibitor in HeLa cells. Particulars: for uptake (in words): Table 1 / FIG. 2 experiment. The protocol: as §1, §2, §3

For `CNC(=O)[C@@H](NC(=O)[C@H](CCCc1ccccc1)[C@@H](C)N(O)C=O)C(C)(C)C` [SN-311], the “EC50 compared with G1254023X” value in experiment [1] and in experiment [2] was “fall within the 95% confidence interval of that of G1254023X” throughout.

As to `[123I-].[Na+]` [[^123I]NaI, reference compound], the Bq per well came to 297 Bq in experiment [3] (WHCO5, 50000 cells); 308 Bq in experiment [3] (WHCO5, 100000 cells); 317 Bq in experiment [3] (WHCO5, 150000 cells); 357 Bq in experiment [3] (WHCO5, 200000 cells); 148 Bq in experiment [4] (50000 cells); 149 Bq in experiment [4] (100000 cells). Also, the Bq per well in experiment [4] (150000 cells) was 173 Bq; in experiment [4] (200000 cells) it was 161 Bq. Besides, the “Average counts per min” value in experiment [3] (WHCO5, 50000 cells) is 3968 counts per min; in experiment [3] (WHCO5, 100000 cells) it was 4116 counts per min; in experiment [3] (WHCO5, 150000 cells), 4239 counts per min; in experiment [3] (WHCO5, 200000 cells), 4772 counts per min; in experiment [4] (50000 cells), 1974 counts per min; in experiment [4] (100000 cells), 1991 counts per min. Moreover, the figures for the “Average counts per min” value in experiment [4] (150000 cells) and in experiment [4] (200000 cells) were 2308 counts per min and 2147 counts per min, respectively. Also, the “A(0) per well × Eff corr” value in experiment [3] (WHCO5, 50000 cells) is reported as 17807; in experiment [3] (WHCO5, 100000 cells), 18470; in experiment [3] (WHCO5, 150000 cells), 19021; in experiment [3] (WHCO5, 200000 cells), 21415; in experiment [4] (50000 cells), 8857; in experiment [4] (100000 cells), 8934. The “A(0) per well × Eff corr” value is on record as 10355 in experiment [4] (150000 cells) and 9635 in experiment [4] (200000 cells). In addition, the “uptake (in words)” value in experiment [5] and in experiment [6] was “minimal uptake” in each case.

On to `CNC(=O)C(NC(=O)C(CCCc1ccc([123I])cc1)C(C)N(O)C=O)C(C)(C)C` (centres unmarked) [^123I-SN-311], for which the Bq per well in experiment [3] (WHCO5, 50000 cells) is recorded as 698 Bq; in experiment [3] (WHCO5, 100000 cells), 988 Bq; in experiment [3] (WHCO5, 150000 cells), 1202 Bq; in experiment [3] (WHCO5, 200000 cells), 1421 Bq; in experiment [4] (50000 cells), 455 Bq; in experiment [4] (100000 cells), 567 Bq. In addition, the results for the Bq per well in experiment [4] (150000 cells) and in experiment [4] (200000 cells) were 691 Bq and 864 Bq, respectively. The “Average counts per min” value was found to be 9337 counts per min in experiment [3] (WHCO5, 50000 cells); 13207 counts per min in experiment [3] (WHCO5, 100000 cells); 16075 counts per min in experiment [3] (WHCO5, 150000 cells); 18996 counts per min in experiment [3] (WHCO5, 200000 cells); 6080 counts per min in experiment [4] (50000 cells); 7582 counts per min in experiment [4] (100000 cells). In addition, the “Average counts per min” value in experiment [4] (150000 cells) was 9236 counts per min; in experiment [4] (200000 cells), 11555 counts per min. In addition, the “A(0) per well × Eff corr” value came to 41898 in experiment [3] (WHCO5, 50000 cells); 59265 in experiment [3] (WHCO5, 100000 cells); 72135 in experiment [3] (WHCO5, 150000 cells); 85240 in experiment [3] (WHCO5, 200000 cells); 27284 in experiment [4] (50000 cells); 34023 in experiment [4] (100000 cells). For the same molecule, the “A(0) per well × Eff corr” value in experiment [4] (150000 cells) was 41445; in experiment [4] (200000 cells), 51852. Besides, the “uptake of the radiolabeled compound” value in experiment [5] (WHCO5, 0.3 μCi per well, 200000 cells, average of 12 replicates) is reported as 127.63 Bq; in experiment [6] (0.3 μCi per well, 200000 cells, average of 12 replicates), 81.76 Bq. The “uptake (in words)” value in experiment [5] and in experiment [6] was “clear uptake” throughout.
